What all share (assay type): in vivo
Assay [1] deals with Pseudomonas syringae pv. actinidiae (Psa). The assay can be described thus: Field trials 2015-16: foliar sprays on ‘Hayward’ vines, Blocks B and C, Maketu. Conditions: mean of Blocks B and C. An excerpt: Grower standard treatment: Kocide Opti+1×Kasumin
Two field trial sites were established during spring 2015 with the intention of running across two consecutive seasons. The two ‘Hayward’ blocks (coded Block B and C) were located in separate orchards, near Maketu, Bay of Plenty. Block C was the same orchard as the 2014-15 trial, but a different area in the blocks was used. Vines in all blocks were pergola trained with a single vine per bay. The vines generally looked healthy at the commencement of the trial, but had suffered from significant Psa symptoms 2-3 years previously, according to the grower.
The spray treatments were applied to individual vines (eight replicates per treatment) laid out in a randomised block design. The treatments were: • 1. Nil—no Psa control products applied during the growing season • 2. Grower standard—copper-based foliar spray programme, including up to one antibiotic spray • 3. YBCA5—yeast-based foliar spray programme (2×10^7 CFU/mL)
Spray applications in the Grower standard and YBCA5 treatments were applied according to the schedule in Table 5. Common agricultural adjuvants were added to the Grower standard (0.04% Du-Wett®) and YBCA5 (0.03% Nu-Film-17@) applications.
The YBCA5 yeast was produced by liquid fermentation, sourced from three separate production facilities: PFR (Ruakura), AgResearch (Lincoln) and Callaghan Innovation (Lower Hutt). A concentrated yeast pellet after centrifugation was supplied to the laboratory at Ruakura and this was mixed with an inert carrier and extruded to form granules which were air dried overnight in a laminar flow hood. The number of colony forming units/g was calculated by dissolving 0.2 g samples into 20 mL phosphate buffered saline amended with 0.05% Tween 80 (PBSTw). This was serially diluted and 10-μL droplets of each dilution were transferred to Petri dishes with malt yeast extract agar amended with chloramphenicol. Petri dishes were incubated for 24 h at 25° C. and then 4-6° C. for a further 24 h, prior to counting the number of colonies. […]
Psa disease assessments were carried out in the ‘Hayward’ blocks just prior to flowering on 11 Nov. […] Assessments were commenced after taking one step (i.e. 1 m) from the edge of the plot and a set of 25 leaves were scored. […] This was then repeated down the other side of the vine so that four sets of 25 leaves (total=100) were scored within each plot. Similarly, 100 buds/plot were scored for the severity of bud-browning, as described above.
Data were expressed as Psa incidence (based on the proportion of leaves with Psa spotting/proportion of buds with brown sepals) and average Psa severity (mean % leaf area necrotic/mean number of brown sepals on buds). Data were log-transformed and analysed by ANOVA using Genstat (ver. 16) to determine treatment differences. […]

The next assay deals with Monilinia fructicola. The experiment in a line: Cherry inoculation assays 1 and 3: Monilinia fruit rot of ‘Sweet Valentine’ cherries, dip treatment. Conditions: Assay 3, cherries, cumulative after 16 days; Nil 88%; YBCA5 not significant (P>0.05), captan P<0.001. As for the experimental part: (§1) Fruit-based screening assays were conducted in laboratories at the Plant and Food Research Ruakura Research Centre, Hamilton, New Zealand (PFR). PFR assays focused on dip treatment application of YBCA5 and fungicide controls.
(§2) Fruit for Monilinia fructicola and Botrytis spp. inoculation assays were carried out on sweet cherries (Prunus avium ‘Sweet Valentine’) that were picked at the harvest mature stage and sourced from the PFR Clyde Research Orchard in Central Otago on 8 Jan. 2016 for fruit based assays 1 and 2. A second harvest was carried out on 13 Jan. 2016 for fruit based assays 3 and 4.
(§3) Each cherry was then subjected to a double wash process. Wash one consisted of 10 minutes in tap water on a rotary shaker (110 rpm) followed by a five minute wash in SDW (Wash 2). […]
A Monilinia fructicola culture (isolate code MFGQ3), which had been originally isolated from an infected peach tree located in the Hamilton region during 1998, was used for the spray inoculation assays included in this section (Ruakura based assay). […] This stock suspension was then filtered using a 70 μm cell strainer (to remove mycelial fragments), the concentration determined using a haemocytometer and then adjusted, by dilution with SDW+Tw 80 (0.05%) to a final concentration of 1×10^4 conidia/mL. […]

Assay [2] relates to Botrytis spp. The assay can be described thus: Grape inoculation assay 5: Botrytis spp. rot of wounded table grape berries. Conditions: Assay 5, wounded table grapes, 9 days, mean of two Botrytis spp. isolates; nil 30%; significantly reduced (P<0.001). As to the method: Fruit assays were carried out on detached white table grape berries (‘Thompson seedless’—Assay 5), imported from California that were sourced from a local supermarket in Hamilton. Each berry was detached from the bunch with 3-4 mm of pedicel remaining and then subjected to a double wash process. Wash one consisted of 10 minutes in tap water on a rotary shaker (110 rpm) followed by a five minute wash in SDW (Wash 2). All berries were placed onto sterile black plastic grids in a sterile plastic meat tray with two sterile paper towels and were allowed to dry in a laminar flow hood. Each berry was lightly wounded with the aid of fine sandpaper, Grade P220, then dipped in the treatments for 60 seconds and again allowed to dry.
YBCA5 granules were prepared by fermenting the yeast for 3 days in a 10 L bioreactor (Labfors) using sterile liquid media (4% molasses and 1.2 g/L urea). […]
Botrytis spp. inoculum was prepared by growing each isolate of Botrytis spp. for 5-7 days on PDA (DIFCO, Fort Richard) medium and harvesting the conidia by washing the plate with SDW plus Tween 80 (0.01%) to make a stock suspension of inoculum. This stock suspension was then filtered using a cell strainer (70 μm mesh, Falcon) to remove mycelial fragments, the concentration determined using a haemocytometer and adjusted to the required concentration (2×10^4 conidia/mL) equivalent to 200 conidia in each 10 μL droplet. […]

Assay [3] deals with Botrytis spp. The assay can be described thus: Cherry inoculation assays 2 and 4: Botrytis spp. fruit rot of ‘Sweet Valentine’ cherries, dip treatment. Conditions: Assay 4, cherries, cumulative after 16 days; nil 67%; not significantly reduced (P>0.05). As for the experimental part: as §1, §2, §3
A Botrytis spp. culture (isolate code 09-2), which had been originally isolated from an infected kiwifruit located in the Bay of Plenty region during the 2000s, was used for the spray inoculation assays included in this section carried out on cherries. […] This stock suspension was then filtered using a 70 μm cell strainer (70 μm mesh) to remove mycelial fragments, the concentration determined using a haemocytometer and then adjusted, by dilution with SDW+Tw 80 (0.01% v/v) to a final concentration of 1×10^5 conidia/mL. […]

Data on two compounds can be found in patent US12421489B2, “Biological control of plant pathogenic microorganisms” (priority 2016, dated 2025).

Consider `[Cu+2].[OH-].[OH-]` [Kocide Opti, Copper Hydroxide], for which, in assay [1] (assessed Nov. 11, 2015, Nil control 0.24, LSD 0.099), the “Severity of spotting (% leaf area)” value is recorded as 0.07 b % leaf area. In assay [1] (assessed Nov. 11, 2015, Nil control 1.29, LSD 0.226), the “Severity of bud browning (No. sepals)” value came out at 0.80 b No. sepals. For the same compound, the “% leaves with spotting (incidence)” value in assay [1] (assessed Nov. 11, 2015, Nil control 50, LSD 8.0) was 27 b %. In addition, the “% buds with necrosis (incidence)” value in assay [1] (assessed Nov. 11, 2015, Nil control 61, LSD 9.9) came out at 45 b %.

Take `O=C1C2CC=CCC2C(=O)N1SC(Cl)(Cl)Cl` (stereo not shown) [captan]: the “incidence of Monilinia fruit rot” value in the assay with Monilinia fructicola is listed as 12%. For the same compound, the “incidence of Botrytis spp. fruit rot” value in the assay on Botrytis spp. [2] is 10%; with Botrytis spp. [3] it was 43%.
